Legend:
[1] = test system: reversed canal sac of colon/rectum; assay: Calcium absorption in reversed canal sac, colon/rectum; assay type: cell-based, Wister rats
Procedure: (§1) Experiment 1 confirmed that cyclic tetrasaccharide promotes mineral absorption in alimentary canal of rat concretely in intestinum ileum or its upper alimentary canal. The following experiment was carried out in order to determine a part of alimentary canal, cyclic tetrasaccharide acts on to promote mineral absorption. Twenty heads of Wister rats (nine week aged male, commercialized by Charlesriver Corporation, Kanagawa, Japan) were bred for three days with a usual solid feed for rats. Under the anesthetization with ether, alimentary canal was taken out from each rat which had been bled from a jugular vein and treated by abdominal operation. Each alimentary canal was divided into jejunum, intestinum ileum and colon/rectum and washed with physiological saline to remove the content. The resulting jejunum specimen, intestinum ileum specimen or colon/rectum specimen was cut off to prepare each midsection sized with about 10 cm in length. The resulting midsection of each specimen was reversed using a glass rod and immersed in a physiological saline babbled with gas consisting of 95% oxygen and 5% carbon dioxide. The resultant was cut into pieces sized with 5 cm in length and each piece was tied with a suture thread at both ends to prepare a reversed canal sac, and injected with about 0.5 ml of an internal sac solution containing 30 mM Tris-HCl buffer (pH7.4), 125 mM sodium chloride, 4 mM potassium chloride, 10 mM glucose and 1.25 mM calcium chloride (dihydrate) with a syringe and weighed. The resulting sac was immersed in an external sac solution (being bubbled with the gas consisting of 95% oxygen and 5% carbon dioxide) containing 50 mM, 100 mM or 200 mM of the same cyclic tetrasaccharide to Experiment 1 in the above solution containing 30 mM Tris-HCl buffer (pH7.4), 125 mM sodium chloride, 4 mM potassium chloride, 10 mM glucose and 1.25 mM calcium chloride (dihydrate). At 15 or 30 minutes after the immersion, the reversed canal sac was taken out from the solution and washed with distilled water. The internal sac solution was collected from the resulting sac and admixed with distilled water to give a final volume of 25 ml. The resulting solution was subjected to a calorimetric measurement of calcium content using “CALCIUM TEST C WAKO™” (commercialized by Wako Pure Chemicals Corporation, Osaka, Japan). As a negative control, an external sac solution without saccharides. As a positive control, an external sac solution containing 200 mM maltitol, reported to have the effect on promoting mineral absorption though intestinal canal, instead of cyclic tetrasaccharide were prepared and carried out in the same manner. Speed of calcium absorption (nmol/min·cm^2) and its relative values defining the value of negative control as 100 were calculated.

[2] = test system: reversed canal sac of jejunum; assay: Calcium absorption in reversed canal sac, jejunum; assay type: cell-based, Wister rats
Procedure: as §1

[3] = Remaining cyclic tetrasaccharide in contents of alimentary canal and excrement of rats; assay type: in vivo, Wister rats; details: for Remaining percentage of cyclic tetrasaccharide in content of appendix / Remaining percentage of cyclic tetrasaccharide in content of intestinum ileum / Remaining percentage of cyclic tetrasaccharide in excrement: relative to chromium marker
Excerpt: Forty of Wister rats weighing 110 to 120 g (five-weeks aged male, commercialized by Charles River Japan Inc., Yokohama, Japan) were bred with a feed containing ingredients (%) shown in Table 1 for one week in order to be familiarized. The familiarized rats were randomly divided into four groups with ten rats each. Each group was experimentally bred for eight weeks with either a feed without cyclic tetrasaccharide shown in Table 1 (hereinafter, it is called as “basic feed”), or another feed of basic feed supplemented with 1%, 2% or 5% on a dry solid basis, of cyclic tetrasaccharide in a crystalline anhydrous powder form with a purity of 99.5%, prepared in the following Example A-3. These basic feed and three kinds of feeds with cyclic tetrasaccharide were prepared to contain 44.75% of the total amount of cyclic tetrasaccharide and corn starch in each feed. From one week before the end of the breeding test, in order to determine the metabolism of calcium, magnesium, iron, sodium, potassium and phosphorus (hereinafter, may be called “minerals” in all), rats in the all groups were fed with the four types of feeds supplemented with 0.5% of chromium oxide as a non-absorbed marker for the minerals. The rats were bred at 25° C. in a manner of freely allowing to take feeds and water under a condition of 12 hours regular interval between of light and shade. After completion of experimental breeding, all rats were individually weighed to calculate the average of weight and further calculate the rate of increased weight for each group.
Two days before the end of the breeding test, rats were placed into a gauge for measuring metabolism to collect their excrement in two days. The resulting excrement was subjected to the measurement of the contents of cyclic tetrasaccharide, each mineral, and chromium. After the breeding test, the rats were anatomized in an anesthetized condition to take out their alimentary canals including jejunum, intestinum ileum, appendix and colon/rectum. After the resulting alimentary canals were weighed, their contents were also weighed and subjected to the measurement of the amount of cyclic tetrasaccharide, minerals and chromium. The rats, which had been taken out their alimentary canals, were dislocated at their cervical vertebrae and taken out their femurs from right legs. The resulting femurs were subjected to the measurement of the amount of ashes, calcium, magnesium and phosphorus. The following(s) explain the methods of quantitative analysis of cyclic tetrasaccharide and the methods of measurement of minerals and chromium.
One gram of a feed was admixed with 5 ml of 80% ethanol heated at 85° C. under reflux for 15 minutes to extract saccharides. The resulting saccharide sample was subjected to TMS derivatization in a usual manner. Three microliters of the sample was applied to a gas chromatography (“GC-16™”, commercialized by Shimazu Corporation, Kyoto, Japan) equipped with OV-17 packed column (“2% Silicone, OV-17 Chromosorb W/AW DMSC 80-100 mesh, 3 mmID×2 m, SUS”, produced by GL Science Corporation). The inner column temperature was kept at 160° C. for two minutes, and heated up to 320° C. at a rate of 7.5° C./min. The amount of cyclic tetrasaccharide was quantified by using nitrogen gas as a carrier (35 ml/min). While, in order to quantify the amounts of the contents of jejunum, intestinum ileum, appendix, colon/rectum and excrement, 0.05 g of each sample was weighed in a micro tube for gas chromatography and dried in a desiccator with phosphorus pentoxide. The resulting samples were subjected to TMS derivatization in a usual manner and quantified by gas chromatography.
The remaining percentages (%) were calculated using the following numerical formula, based on the rate of the amount of cyclic tetrasaccharide to chromium in each feed and the rate of those in the contents or excrement in consideration of that chromium is never absorbed by living bodies; […]

[4] = 50 mM saccharide in external sac solution
[5] = 100 mM saccharide in external sac solution
[6] = 200 mM saccharide in external sac solution
[7] = 1% cyclic tetrasaccharide in feed
[8] = 2% cyclic tetrasaccharide in feed
[9] = 5% cyclic tetrasaccharide in feed
[10] = feed supplemented with 1%, 2% or 5% of cyclic tetrasaccharide

With `OC[C@H]1O[C@@H]2OC[C@H]3O[C@H](O[C@@H]4[C@@H](O)[C@@H](OC[C@H]5O[C@H](O[C@H]([C@H]2O)[C@@H]1O)[C@H](O)[C@@H](O)[C@@H]5O)O[C@H](CO)[C@H]4O)[C@H](O)[C@@H](O)[C@@H]3O` [cyclic tetrasaccharide, cyclo{>6)-α-D-glucopyranosyl-(1>3)-α-D-glucopyranosyl-(1>6)-α-D-glucopyranosyl-(1>3)-α-D-glucopyranosyl-(1>}] the “Absorption speed of calcium in alimentary canal sac, Colon/Rectum” value (“Absorption speed of calcium … Colon/Rectum” below) [1, 4] was 13.5 ※ nmol/min · cm^2, the “Relative value of calcium absorption speed (control = 100), Colon/Rectum” value [1, 4] was “(101)” and the “Absorption speed of calcium … Colon/Rectum” value [1, 5] was 14.6 *※ nmol/min · cm^2. For the same molecule, the “Relative value of calcium absorption speed (control = 100), Colon/Rectum” value [1, 5] was “(109)”, the “Absorption speed of calcium … Colon/Rectum” value [1, 6] was 15.4 *※ nmol/min · cm^2 and the “Relative value of calcium absorption speed (control = 100), Colon/Rectum” value [1, 6] was “(116)”. The “promotion of calcium absorption in colon/rectum” value ([1]; reversed sac) was “slightly”, the “Absorption speed of calcium in alimentary canal sac, Jejunum” value (“Absorption speed of calcium … Jejunum” below) [2, 4] was 26.5 *※ nmol/min · cm^2 and the “Relative value of calcium absorption speed (control = 100), Jejunum” value [2, 4] was “(124)”. The “Absorption speed of calcium … Jejunum” value [2, 5] was 37.6 *※ nmol/min · cm^2, the “Relative value of calcium absorption speed (control = 100), Jejunum” value [2, 5] was “(176)” and the “Absorption speed of calcium … Jejunum” value [2, 6] was 39.0 *※ nmol/min · cm^2. The “Relative value of calcium absorption speed (control = 100), Jejunum” value [2, 6] was “(183)”, the “promotion of calcium absorption in jejunum” value ([2]; reversed sac) was “strongly promoted” and the “Amount of cyclic tetrasaccharide in content of appendix” value (shortened to “Amount … of appendix”) [3, 7] was 0.0 mg/g. For the same molecule, the “Amount of cyclic tetrasaccharide in content of intestinum ileum” value (“Amount … of intestinum ileum” below) [3, 7] was 60.5 mg/g, the “Amount of cyclic tetrasaccharide in excrement” value (from here on “Amount … in excrement”) [3, 7] was 0.0 mg/g and the “Remaining percentage of cyclic tetrasaccharide in content of appendix” value (from here on “Remaining percentage … of appendix”) [3, 7] was 0%. For the same molecule, the “Remaining percentage of cyclic tetrasaccharide in content of intestinum ileum” value (“Remaining percentage … of intestinum ileum” for short) [3, 7] was 95%, the “Remaining percentage of cyclic tetrasaccharide in excrement” value (“Remaining percentage … in excrement” for short) [3, 7] was 0% and the “Amount … of appendix” value [3, 8] was 0.0 mg/g. The “Amount … of intestinum ileum” value [3, 8] was 184.1 mg/g, the “Amount … in excrement” value [3, 8] was 0.0 mg/g and the “Remaining percentage … of appendix” value [3, 8] was 0%. For the same molecule, the “Remaining percentage … of intestinum ileum” value [3, 8] was 95%, the “Remaining percentage … in excrement” value [3, 8] was 0% and the “Amount … of appendix” value [3, 9] was 0.0 mg/g. The “Amount … of intestinum ileum” value [3, 9] was 298.0 mg/g, the “Amount … in excrement” value [3, 9] was 0.0 mg/g and the “Remaining percentage … of appendix” value [3, 9] was 0%. The “Remaining percentage … of intestinum ileum” value [3, 9] was 90%, the “Remaining percentage … in excrement” value [3, 9] was 0% and the “cyclic tetrasaccharide in the appendix and excrement” value [3, 10] was “not detected at all”. The “cyclic tetrasaccharide remained up to intestinum ileum without digestion” value [3, 10] was “at least 90%”.

Source: patent publication US20080113938A1, “ACCELERATOR FOR MINERAL ABSORPTION AND USE THEREOF” (KABUSHIKI KAISHA HAYASHIBARA SEIBUTSU KAGAKU KENKYUJO, priority 2003, published 2008)
